In patent US12599617B2, “Methods of treating head and neck cancers with hemp extract” (Ecofibre USA Inc., priority 2021, dated 2026):

Experiments:
[1] = system: patient derived organoids; assay: Response / % cell death of patient derived organoids; type: cell-based, human; conditions: for % Cell Death: patient derived organoids treated with the drug
Source text: A few of the above materials, as well as additional drugs were tried for response to patient derived organoids in Table 4, below, which details the % of cell death of the patient derived organoids, when treated with the relevant drug product.

[2] = system: human head and neck cancer organoids; assay: Head and neck cancer organoid viability, cannabis extracts and paclitaxel alone or combined
CYP2C19 enzymes = CYP2C19 enzymes (Homo sapiens, UniProt P33261); conditions: in vitro; cited from earlier work
Chain of CYP2C19 enzymes (P33261 whole entry): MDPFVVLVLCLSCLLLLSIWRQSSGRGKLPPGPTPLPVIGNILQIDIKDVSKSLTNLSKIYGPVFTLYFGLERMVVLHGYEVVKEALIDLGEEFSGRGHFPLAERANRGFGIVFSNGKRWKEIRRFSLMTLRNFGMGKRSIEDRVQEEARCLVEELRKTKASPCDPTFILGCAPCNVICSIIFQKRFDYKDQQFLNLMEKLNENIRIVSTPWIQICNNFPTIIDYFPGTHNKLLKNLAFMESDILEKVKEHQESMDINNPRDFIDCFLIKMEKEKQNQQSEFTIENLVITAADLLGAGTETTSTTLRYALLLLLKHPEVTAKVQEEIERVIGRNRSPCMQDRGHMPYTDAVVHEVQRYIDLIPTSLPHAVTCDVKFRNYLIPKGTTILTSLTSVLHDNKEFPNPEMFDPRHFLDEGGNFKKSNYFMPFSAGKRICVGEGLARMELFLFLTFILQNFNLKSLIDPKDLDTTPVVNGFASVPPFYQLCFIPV

P-glycoprotein = P-glycoprotein (Homo sapiens, UniProt P08183); conditions: in vitro study; cited from earlier work
Chain of P-glycoprotein (P08183 whole entry): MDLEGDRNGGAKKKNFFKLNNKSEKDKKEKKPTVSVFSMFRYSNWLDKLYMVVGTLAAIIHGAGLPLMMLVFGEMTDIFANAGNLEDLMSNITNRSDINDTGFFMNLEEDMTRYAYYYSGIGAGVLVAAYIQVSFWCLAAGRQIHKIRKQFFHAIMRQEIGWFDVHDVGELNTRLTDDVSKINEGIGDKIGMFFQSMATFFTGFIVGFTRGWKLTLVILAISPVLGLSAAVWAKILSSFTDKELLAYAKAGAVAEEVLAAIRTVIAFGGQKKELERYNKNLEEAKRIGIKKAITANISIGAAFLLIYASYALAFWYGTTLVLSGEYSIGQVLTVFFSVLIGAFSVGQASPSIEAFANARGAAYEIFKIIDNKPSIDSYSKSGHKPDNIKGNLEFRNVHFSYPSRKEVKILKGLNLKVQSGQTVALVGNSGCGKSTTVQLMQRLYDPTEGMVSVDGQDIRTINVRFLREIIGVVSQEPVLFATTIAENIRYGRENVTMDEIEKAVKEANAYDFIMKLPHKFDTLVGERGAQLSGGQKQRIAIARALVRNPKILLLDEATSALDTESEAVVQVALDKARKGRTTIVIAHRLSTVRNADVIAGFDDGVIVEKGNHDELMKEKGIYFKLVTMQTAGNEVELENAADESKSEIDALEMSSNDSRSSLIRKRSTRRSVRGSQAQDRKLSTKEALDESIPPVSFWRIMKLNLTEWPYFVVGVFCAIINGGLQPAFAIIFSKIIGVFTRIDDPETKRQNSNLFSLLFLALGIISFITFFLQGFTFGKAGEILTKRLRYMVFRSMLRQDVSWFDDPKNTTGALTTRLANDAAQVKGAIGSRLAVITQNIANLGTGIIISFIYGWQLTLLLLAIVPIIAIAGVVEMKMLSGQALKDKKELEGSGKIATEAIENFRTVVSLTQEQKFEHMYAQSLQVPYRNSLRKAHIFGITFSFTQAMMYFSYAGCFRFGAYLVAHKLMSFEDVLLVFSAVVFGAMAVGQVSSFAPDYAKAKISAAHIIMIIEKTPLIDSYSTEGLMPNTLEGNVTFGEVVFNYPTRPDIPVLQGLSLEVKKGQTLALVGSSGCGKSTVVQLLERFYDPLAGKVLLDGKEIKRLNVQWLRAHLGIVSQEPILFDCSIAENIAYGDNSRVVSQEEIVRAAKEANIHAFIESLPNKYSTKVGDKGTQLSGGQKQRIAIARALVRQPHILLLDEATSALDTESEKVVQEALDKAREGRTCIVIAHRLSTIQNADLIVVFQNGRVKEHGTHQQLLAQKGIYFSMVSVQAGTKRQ

[3] = cited from earlier work
[4] = system: grade 2 endometrial cancer organoids; assay: Grade 2 endometrial cancer organoid viability, carboplatin alone or with cannabis extract; type: cell-based, human; conditions: carboplatin alone, 50 and 100 μm/mL
[5] = system: patient derived endometrial cancer cells; assay: Patient-derived xenograft (PDX) mouse tumor volume; type: in vivo, mice; conditions: paclitaxel only, 10 mg/kg, 21 days
Source text: All treatment group mice were kept alive for up to 10 weeks after drug injection or until the tumor volume grows bigger than 2500 mm^3.

| Compound | % Cell Death [1] [%] | other results |
| --- | --- | --- |
| 5-Fluorouaracil/Capecitabine | 61 |  |
| C=C(C)[C@@H]1CCC(C)=C[C@H]1c1c(O)cc(CCCCC)cc1O [CBD isolate, cannabidiol] |  | percent viability of head and neck cancer organoids ([2]; 10 μg/mL cannabis extract): effective in reducing the viability of the head and neck cancer organoids significantly |
| C=C(C)[C@@H]1CCC(C)=C[C@H]1c1c(O)cc(CCCCC)cc1O [CBD, cannabidiol] |  | organoid response ([1]; organoid of the chemoresistant endometrial cancer patient): significant response; inhibition of CYP2C19 (CYP2C19 enzymes): potent inhibitor of CYP2C19 enzymes; inhibition of P-glycoprotein-mediated drug transport (P-glycoprotein): significantly inhibits P-glycoprotein-mediated drug transport; effect on peak plasma concentrations of CBD ([3]; coadministration of rifampicin (a CYP3A4 inducer)): significantly reduced peak plasma concentrations; effect on peak plasma drug concentrations ([3]; coadministration of the CYP3A4 inhibitor ketoconazole): nearly doubled peak plasma drug concentrations |
| C=C(C)[C@@H]1CCC(C)=C[C@H]1c1c(O)cc(CCCCC)c(C(=O)O)c1O [CBDA, cannabidiolic acid] |  | percent viability of head and neck cancer organoids ([2]; at least 15 μg/mL CBDA): below 10% |
| CO[C@H]1C(=O)[C@]2(C)[C@@H](OC)C[C@H]3OC[C@@]3(OC(C)=O)[C@H]2[C@H](OC(=O)c2ccccc2)[C@]2(O)C[C@H](OC(=O)[C@H](O)[C@@H](NC(=O)OC(C)(C)C)c3ccccc3)C(C)=C1C2(C)C [Cabazitaxel] | 37 |  |
| N.N.O=C([O-])C1(C(=O)[O-])CCC1.[Pt+2] [Carboplatin] | 30 | viability [4]: about 50% |
| N.N.[Cl][Pt][Cl] [Cisplatin] | 36 |  |
| O=P1(N(CCCl)CCCl)NCCCO1 (stereo not drawn) [Cyclosphosphamide] | 32 |  |
| CN(C)/N=N/c1[nH]cnc1C(N)=O [Dacarbazine] | 32 |  |
| COc1cccc2c1C(=O)c1c(O)c3c(c(O)c1C2=O)C[C@@](O)(C(=O)CO)C[C@@H]3O[C@H]1C[C@H](N)[C@H](O)[C@H](C)O1 [Doxorubicin] | 39 |  |
| COc1cc([C@@H]2c3cc4c(cc3[C@@H](O[C@@H]3O[C@@H]5CO[C@@H](C)O[C@H]5[C@H](O)[C@H]3O)[C@H]3COC(=O)[C@H]23)OCO4)cc(OC)c1O [Etoposide] | 33 |  |
| Nc1ccn([C@@H]2O[C@H](CO)[C@@H](O)C2(F)F)c(=O)n1 [Gemcitabine] | 56 |  |
| CCc1c2c(nc3ccc(OC(=O)N4CCC(N5CCCCC5)CC4)cc13)-c1cc3c(c(=O)n1C2)COC(=O)[C@]3(O)CC [Irinotecan] | 51 |  |
| N[C@@H](Cc1ccc(N(CCCl)CCCl)cc1)C(=O)O [Melphalan] | 40 |  |
| O=C1c2c(O)ccc(O)c2C(=O)c2c(NCCNCCO)ccc(NCCNCCO)c21 [Mitoxantrone] | 50 |  |
| CC(=O)O[C@H]1C(=O)[C@@]2(C)[C@H]([C@H](OC(=O)c3ccccc3)[C@]3(O)C[C@H](OC(=O)[C@H](O)[C@@H](NC(=O)c4ccccc4)c4ccccc4)C(C)=C1C3(C)C)[C@]1(OC(C)=O)CO[C@@H]1C[C@@H]2O [Paclitaxel] | 39 | organoid viability ([2]; human, 14 days, 16 nm/mL): around 60%; organoid viability ([2]; paclitaxel alone, 4 nm/mL): virtually no impact on the organoid viability; effect on tumor volume [5]: in essence ineffective after an initial reduction at day 10 |
| CCCCCc1cc(O)c2c(c1)OC(C)(C)[C@@H]1CCC(C)=C[C@@H]21 [THC, Δ-9-tetrahydrocannabinol] |  | onset to reach peak concentration ([3]; oral THC formulations): ~120 min |
| Cn1nnc2c(C(N)=O)ncn2c1=O [Temozolomide] | 40 |  |
| COc1cc2c(cc1O)CCN[C@]21CS[C@@H]2c3c(OC(C)=O)c(C)c4c(c3[C@H](COC1=O)N1[C@@H]2[C@H]2c3c(cc(C)c(OC)c3O)C[C@@H]([C@@H]1O)N2C)OCO4 [Trabectedine] | 32 |  |
| CC[C@]1(O)C[C@@H]2CN(CCc3c([nH]c4ccccc34)[C@@](C(=O)OC)(c3cc4c(cc3OC)N(C)[C@H]3[C@@](O)(C(=O)OC)[C@H](OC(C)=O)[C@]5(CC)C=CCN6CC[C@]43[C@@H]65)C2)C1 [Vinblastine] | 38 |  |
| CCC1=C[C@@H]2CN(C1)Cc1c([nH]c3ccccc13)[C@@](C(=O)OC)(c1cc3c(cc1OC)N(C)[C@H]1[C@@](O)(C(=O)OC)[C@H](OC(C)=O)[C@]4(CC)C=CCN5CC[C@]31[C@@H]54)C2 [Vinorelbine] | 45 |  |
| Bleomycin | 53 |  |
